The source of these data is US20250353855A1, “HETEROCYCLIC AND HETEROARYL COMPOUNDS FOR TREATING HUNTINGTON'S DISEASE” (PTC THERAPEUTICS, INC., priority 2022, published 2025).

Where only a bound is given, the exact number is not on record here.

What is called IC50 is the concentration needed to halve the response being measured.

The subject of this assay is Endogenous Huntingtin Protein. In words: Endogenous Huntingtin Protein Assay (ELISA-based MSD electrochemiluminescence). In kind it is cell-based. The note with it: MSD plates coated with MW1 (expanded polyglutamine) or MAB2166 capture antibody; lysates; read-out: IC50. Put shortly: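 Electrochemiluminescence sandwich ELISA for endogenous huntingtin: capture with MW1 (expanded polyglutamine) or MAB2166 antibody at 1 μg/mL, samples incubated overnight at 4° C. Detection with rabbit monoclonal #5656S then goat anti-rabbit SULFO-TAG antibody (each 0.25 μg/mL, 1 h room temperature), read on MSD imager.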
(In general: In an ELISA, binding on a coated surface is turned into a signal by an enzyme label.)
As to `CSc1nc2cc(O)c(-c3cc4ccn([C@H]5CC(C)(C)NC(C)(C)[C@H]5F)c4nn3)cc2s1` [Cpd 99, 6-{7-[(3S,4S)-3-fluoro-2,2,6,6-tetramethylpiperidin-4-yl]-7H-pyrrolo[2,3-c]pyridazin-3-yl}-2-(methylsulfanyl)-1,3-benzothiazol-5-ol], the IC50 was below 0.1 µM.
For the compound `Cn1cc2cc(-c3cc4ccn([C@H]5CC(C)(C)NC(C)(C)[C@H]5F)c4nn3)c(O)c(F)c2n1` [Cpd 100, 7-fluoro-5-{7-[(3S,4S)-3-fluoro-2,2,6,6-tetramethylpiperidin-4-yl]-7H-pyrrolo[2,3-c]pyridazin-3-yl}-2-methyl-2H-indazol-6-ol], the IC50 was below 0.1 µM.
The same measure for `Cn1cc2cc(-c3cc4c(nn3)N([C@H]3CC(C)(C)NC(C)(C)[C@H]3F)CC4)c(O)c(F)c2n1` [Cpd 101, 7-fluoro-5-{7-[(3S,4S)-3-fluoro-2,2,6,6-tetramethylpiperidin-4-yl]-6,7-dihydro-5H-pyrrolo[2,3-c]pyridazin-3-yl}-2-methyl-2H-indazol-6-ol]: below 0.1 µM.
To `Cc1nc2cc(-c3cc4ccn([C@H]5CC(C)(C)NC(C)(C)[C@H]5F)c4nn3)c(O)c(F)c2o1` [Cpd 102, 7-fluoro-5-{7-[(3S,4S)-3-fluoro-2,2,6,6-tetramethylpiperidin-4-yl]-7H-pyrrolo[2,3-c]pyridazin-3-yl}-2-methyl-1,3-benzoxazol-6-ol] belongs below 0.1 µM.
Regarding `Cc1nc2cc(-c3cc4c(nn3)N([C@H]3CC(C)(C)NC(C)(C)[C@H]3F)CC4)c(O)c(F)c2o1` [Cpd 103, 7-fluoro-5-{7-[(3S,4S)-3-fluoro-2,2,6,6-tetramethylpiperidin-4-yl]-6,7-dihydro-5H-pyrrolo[2,3-c]pyridazin-3-yl}-2-methyl-1,3-benzoxazol-6-ol], the concentration for half-maximal inhibition (IC50) is below 0.1 µM.
